Among the test systems are IGROV-1; NCI-H460; PC-3; MDA-N; SNB-19; HT-29; SF-539; A498; A549; OVCAR-8; NCI-H226; MOLT-4; Malme-3M; HOP-62; SN12C; UACC-62; U-251; TK-10; HCT-15; T47D.
Assay in all cases: DTP human tumour cell line panel, 48 h

The text below walks through data of ChEMBL document CHEMBL1201862, “PubChem BioAssay data set” (2004).

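Dose response: 5 concentrations. Exposure: 48 h. Format: 96-well plates. Endpoint: linear interpolation; highest concentration if not reached. GI50: concentration for 50% inhibition of growth.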 Activity calls are given as the source filed them. No stated cut-off is given here; in the data, active = GI50 up to about 1.1 µM and inactive = higher. Where only a bound is given, the exact number is not on record here.

Consider `COC(=O)c1c(O)ccc2c1c1c(n2Cc2ccccc2)C(=O)c2ccccc2C1`, for which the GI50 (in general, the concentration that inhibits growth by half) in the test with IGROV-1 is 40.6 µM (inactive); with NCI-H460, 31.9 µM (inactive); with PC-3, 20 µM (inactive); with MDA-N it was 43.4 µM (inactive); with SNB-19, 95.5 µM (inactive); with HT-29, 18.4 µM (inactive). The GI50 was 26.2 µM (inactive) in the test with SF-539; 64.7 µM (inactive) with A498; 30.8 µM (inactive) in the test with A549; 39.7 µM (inactive) with OVCAR-8; 46.3 µM (inactive) in the test on NCI-H226; 3.17 µM (inactive) with MOLT-4. The GI50 was 69.5 µM (inactive) in the test with Malme-3M; > 100 µM (inactive) in the test with HOP-62; 21.6 µM (inactive) in the test with SN12C; 36.9 µM (inactive) in the test with UACC-62; 38 µM (inactive) in the test on U-251; 65.9 µM (inactive) in the test with TK-10. In addition, in the test on HCT-15, the GI50 was 35.1 µM.

For the molecule `S=C1CNC(=S)CN1`, the GI50 with IGROV-1, in the test on NCI-H460, in the test on SNB-19, in the test on HT-29, in the test on SF-539 and in the test on A498 was > 100 µM (inactive) throughout. The GI50 in the test with A549, with OVCAR-8, in the test on NCI-H226, with MOLT-4, with Malme-3M and with HOP-62 was > 100 µM (inactive) in each case. Also, the GI50 was > 100 µM (inactive) in the test with SN12C; > 100 µM (inactive) in the test with UACC-62; > 100 µM (inactive) in the test on U-251; > 100 µM (inactive) in the test on TK-10; over 100 µM with HCT-15.

For `CN(C)CN1C(=O)S/C(=C2\C(=O)N(CN(C)C)c3ccccc32)C1=O`, the GI50 with IGROV-1 is 57.5 µM (inactive); with NCI-H460, 32.3 µM (inactive); in the test on PC-3, 45.6 µM (inactive); in the test on SNB-19, 67.5 µM (inactive); with HT-29 it was 42.4 µM (inactive); in the test on SF-539, 40.6 µM (inactive). For the same molecule, the GI50 with A498 is > 100 µM (inactive); in the test on A549 it was 45.8 µM (inactive); in the test on OVCAR-8 it was 46.6 µM (inactive); with NCI-H226 it was 38.9 µM (inactive); in the test with MOLT-4, < 0.01 µM (active); in the test with HOP-62 it was 41.6 µM (inactive). Moreover, the GI50 in the test with SN12C is 23.7 µM (inactive); in the test on UACC-62 it was 65.3 µM (inactive); in the test with U-251, 40.6 µM (inactive); in the test on T47D, 39.4 µM (inactive); with TK-10, 46.3 µM (inactive); in the test with HCT-15 it was 30.4 µM.

In the case of `Cc1ccc(S(=O)(=O)N/N=C/CN2C(=O)c3ccccc3C2=O)cc1`, the GI50 in the test with IGROV-1, in the test on NCI-H460, with SNB-19, in the test with HT-29, in the test with SF-539 and with A498 was > 100 µM (inactive) throughout. The GI50 in the test with A549 is > 100 µM (inactive); in the test with OVCAR-8, > 100 µM (inactive); with NCI-H226, 82.2 µM (inactive); in the test with MOLT-4 it was > 100 µM (inactive); with Malme-3M, > 100 µM (inactive); with HOP-62 it was > 100 µM (inactive). Also, the GI50 in the test with SN12C was > 100 µM (inactive); in the test on UACC-62, 89.5 µM (inactive); in the test with U-251, > 100 µM (inactive); with TK-10, > 100 µM (inactive); with HCT-15, over 100 µM.

Regarding `CC(=O)Oc1ccc2c(c1)C(=O)c1nc(C)c(C)nc1C2=O`, the GI50 in the test with IGROV-1 is 46.8 µM (inactive); in the test on NCI-H460, 30.8 µM (inactive); with SNB-19, > 52.4 µM (inactive); in the test with HT-29 it was 31.8 µM (inactive); with SF-539 it was 25.8 µM (inactive); in the test on A498, > 63.4 µM (inactive). Besides, the GI50 was 43.7 µM (inactive) in the test on A549; 45.1 µM (inactive) with OVCAR-8; 38.7 µM (inactive) in the test on NCI-H226; 41.8 µM (inactive) with MOLT-4; 19.5 µM (inactive) in the test on Malme-3M; 23.7 µM (inactive) in the test with HOP-62. The GI50 is 46.5 µM (inactive) in the test with SN12C; 17.5 µM (inactive) with UACC-62; 51.6 µM (inactive) in the test with U-251; > 100 µM (inactive) in the test with TK-10; 40.9 µM with HCT-15.

Regarding `CC(=O)NS(=O)(=O)c1ccc(NC(=O)c2c3ccccc3nc3ccccc23)cc1`, the GI50 in the test with IGROV-1, with NCI-H460, in the test on PC-3, in the test on MDA-N, in the test with SNB-19 and with HT-29 was > 100 µM (inactive) each time. For the same molecule, the GI50 was > 100 µM (inactive) with SF-539; > 100 µM (inactive) with A498; > 100 µM (inactive) in the test with A549; > 100 µM (inactive) in the test with OVCAR-8; > 100 µM (inactive) in the test on MOLT-4; 34.4 µM (inactive) with Malme-3M. The GI50 is > 100 µM (inactive) with HOP-62; > 100 µM (inactive) in the test with SN12C; > 100 µM (inactive) with UACC-62; > 100 µM (inactive) in the test with U-251; > 100 µM (inactive) in the test with TK-10; over 100 µM in the test with HCT-15.

As to `BrCC(Br)(c1ccccc1)c1ccccc1-c1cc(-c2ccccc2)cc(-c2ccccc2)n1` (stereo not given), the GI50 was 3.2 µM (inactive) with IGROV-1; 3.38 µM (inactive) with NCI-H460; 2.59 µM (inactive) in the test with PC-3; 3.01 µM (inactive) with MDA-N; 4.86 µM (inactive) with SNB-19; 2.25 µM (inactive) in the test on HT-29. Besides, the GI50 in the test on SF-539 was 4.3 µM (inactive); in the test with A498, 4.48 µM (inactive); in the test on A549, 4.71 µM (inactive); with OVCAR-8 it was 3.06 µM (inactive); with NCI-H226, 3.72 µM (inactive); in the test on MOLT-4 it was 3.26 µM (inactive). Further, the GI50 in the test on Malme-3M is 3.16 µM (inactive); with HOP-62, 3.55 µM (inactive); with SN12C it was 12.3 µM (inactive); in the test with U-251 it was 1.48 µM (inactive); in the test with TK-10 it was 5.82 µM (inactive); with HCT-15, 15.2 µM.

With `O=C(O)c1cc(Cl)cc(NC(=O)C(Cl)Cl)c1Cl`, the GI50 in the test with IGROV-1, with NCI-H460, in the test on SNB-19, in the test on HT-29, in the test with SF-539 and in the test with A498 was > 100 µM (inactive) throughout. Moreover, the GI50 with A549, with OVCAR-8, with NCI-H226, in the test with MOLT-4, with Malme-3M and with HOP-62 was > 100 µM (inactive) each time. The GI50 with SN12C was > 100 µM (inactive); with UACC-62 it was > 100 µM (inactive); in the test with U-251 it was > 100 µM (inactive); in the test on TK-10, > 100 µM (inactive); with HCT-15, over 100 µM.

Consider `CC(C)(C)c1ccc2c(c1)S(=O)(=O)Nc1ccc(Cl)cc1NS(=O)(=O)c1cc(C(C)(C)C)ccc1OCCOCCOCCO2`, for which the GI50 with IGROV-1 is 38 µM (inactive); with NCI-H460, 26 µM (inactive); in the test on SNB-19, 62.2 µM (inactive); with HT-29, 99.3 µM (inactive); in the test on SF-539 it was 23.5 µM (inactive); in the test on A498 it was > 100 µM (inactive). Further, the GI50 in the test on A549 was 25.1 µM (inactive); in the test with OVCAR-8 it was 35 µM (inactive); in the test on NCI-H226 it was 57.9 µM (inactive); with MOLT-4, > 100 µM (inactive); with Malme-3M, 27.4 µM (inactive); in the test with HOP-62, 32.3 µM (inactive). Further, the GI50 was 43.5 µM (inactive) in the test with SN12C; 17.9 µM (inactive) in the test with UACC-62; 29.2 µM (inactive) with U-251; 37.5 µM (inactive) with TK-10; over 100 µM in the test with HCT-15.

`NC(=O)N=C(N(Cc1ccccc1)Cc1ccccc1)N(Cc1ccccc1)Cc1ccccc1`: the GI50 is 8.97 µM (inactive) in the test with IGROV-1; 4.17 µM (inactive) with PC-3; > 43.9 µM (inactive) in the test with SNB-19; 4 µM (inactive) in the test with HT-29; 28.1 µM (inactive) in the test on SF-539; 39.8 µM (inactive) with A498. Also, the GI50 is > 100 µM (inactive) with A549; 14.4 µM (inactive) in the test on OVCAR-8; > 100 µM (inactive) in the test with NCI-H226; > 100 µM (inactive) in the test on MOLT-4; > 100 µM (inactive) with Malme-3M; 15.3 µM (inactive) in the test on HOP-62. For the same molecule, the GI50 is 6.08 µM (inactive) with SN12C; 8.39 µM (inactive) in the test on UACC-62; 7.45 µM (inactive) in the test with U-251; > 100 µM (inactive) with T47D; > 65.3 µM (inactive) in the test with TK-10; over 28.4 µM in the test with HCT-15.

Turning to `O=C1Nc2c(Cl)cc(Cl)cc2C1=O`, the GI50 in the test with IGROV-1 was 17.7 µM (inactive); with NCI-H460 it was 21 µM (inactive); in the test with PC-3 it was 24.3 µM (inactive); with MDA-N, 8.99 µM (inactive); in the test with SNB-19, > 100 µM (inactive); in the test with HT-29 it was 27.4 µM (inactive). The GI50 is 17.2 µM (inactive) with SF-539; 23.2 µM (inactive) in the test with A498; 19.3 µM (inactive) with A549; 16.9 µM (inactive) with OVCAR-8; 18.5 µM (inactive) with NCI-H226; 18 µM (inactive) with MOLT-4. Besides, the GI50 in the test with Malme-3M was 1.94 µM (inactive); with HOP-62 it was 18.5 µM (inactive); in the test with SN12C it was 17.9 µM (inactive); with UACC-62, 15.8 µM (inactive); in the test on U-251, 21.2 µM (inactive); with TK-10, 95.9 µM (inactive). In the test on HCT-15, halving of growth (GI50) required 20.6 µM.
